Reference: patent US12508300B2, “Acylated GLP-1 derivative” (Sciwind Biosciences Co., Ltd., priority 2019, dated 2025)
*1 amine or outer side, *2 acyl side, *3 side chain or, on linkers, in order; H or OH if unused. Where a SMILES comes first, the peptide text is derived from it. Side-chain parts run from the residue outwards. The star is where a group is joined. C18 diacid = O=C(O)CCCCCCCCCCCCCCCCC(=O)*; γGlu = O=C(O)[C@H](CCC(=O)[*:2])N[*:1]; AEEA = NCCOCCOCC(=O)O

How the values were obtained:
GLP1R = molecular target: T1, GLP1R (Homo sapiens, UniProt P43220); assay: In vitro activity determination in HEK293/CRE-Luc/GLP1R cells (luciferase reporter); assay type: cell-based
T1 construct: expressed in transfected cells; host or cells: HEK293
Method: Based on the fact that GLP-1 may bind to the receptor on the cell membrane, the HEK293/CRE-Luc/GLPIR cell line is constructed, the CAMP response elements (CRE) are activated through a series of signal transduction, the expression of downstream luciferase is initiated, and the amount of its expression is positively correlated with the biological activity of GLP-1. After adding the luciferase substrate, the chemiluminescence assay is performed to determine the luminous intensity, thereby determining the biological activity of GLP-1.
96-well cell culture plate (white and opaque), DMEM medium (GIBCO), 0.05% TRYPSIN-EDTA (GIBCO), fetal bovine serum (GIBCO), G418, hygromycin B, Bright-Glo™ Luciferase Assay System Kit (Promega), and HEK293/CRE-luc/GLP1R cells.
(1) Cell preparation: the cells are cultured until they grow vigorously and reach a sufficient quantity, discarding the culture medium in the culture bottle, adding 3 ml of Versene solution and shaking once; then adding 2 ml of 0.05% TRYPSIN-EDTA digestion solution, covering the bottle and standing for 1 minute, and then adding 6 ml of the assay medium to quench the digestion; after centrifugation at 1000 r/min for 3 min, the supernatant is discarded, and the cells are resuspended in 5 ml of assay medium and counted on a hemacytometer. The cell density is adjusted to an appropriate range for later use by using DMEM assay medium.
(2) Sample preparation: the derivatives of different GLP-1 analogues in Table 1 are diluted to 20 ng/ml with the assay medium, then gradient diluted into 8 concentrations in 96-well plates, and using the assay medium instead of the sample as the cell blank control. 2 duplicate wells are made for each dilution concentration.
(3) Culturing with addition of the samples: the prepared solutions of the control and test samples are transferred to a 96-well cell culture plate (white board), adding 50 μl of the solution to each well; then adding the prepared cell suspension, adding 50 μl of the suspension to each well; and then incubating for a certain period of time under the conditions of 37° C. and 5% CO2.
(4) Chemiluminescence assay: substrate is added, then taking out the 96-well cell culture plate, adding 100 μl of Bright Glo reagent to each well, and leaving in the dark for 3 min.
(5) Reading: determination is performed with a chemiluminescence microplate reader SpectraMax L, then reading the plate within 30 min, and recording the determined results.

db/db mice = assay: Fasting blood glucose after single injection in type II diabetic db/db mice (FIG. 1); assay type: in vivo; settings: 0.05 mg/kg s.c. single
Method: The dosage is 0.05 mg/kg for each, and the administration time is set as 0 h. Fasting blood glucose is measured after fasting for 6-8 h every day, and the fasting blood glucose after administration is measured every day until the fasting blood glucose value of each animal of the test group recovers to the value measured before administration. The blood glucose value measured before administration is called the basal blood glucose value, and is set as 0. Change of the fasting blood glucose (Δ: delta)=Blood glucose value after administration-Basal blood glucose value before administration.

T1 sequence (P43220 24-463, species assumed): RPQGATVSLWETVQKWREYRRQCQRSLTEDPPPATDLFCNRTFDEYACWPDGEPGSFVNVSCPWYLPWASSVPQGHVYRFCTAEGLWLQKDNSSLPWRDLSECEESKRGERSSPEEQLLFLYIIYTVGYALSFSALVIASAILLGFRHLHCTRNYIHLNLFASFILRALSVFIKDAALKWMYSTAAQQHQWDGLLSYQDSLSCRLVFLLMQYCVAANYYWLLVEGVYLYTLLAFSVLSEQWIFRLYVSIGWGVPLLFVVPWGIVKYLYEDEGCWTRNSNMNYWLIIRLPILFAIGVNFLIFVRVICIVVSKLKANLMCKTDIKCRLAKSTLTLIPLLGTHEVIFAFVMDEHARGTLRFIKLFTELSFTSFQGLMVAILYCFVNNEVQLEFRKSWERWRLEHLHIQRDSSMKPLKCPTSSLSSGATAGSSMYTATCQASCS

`CC[C@H](C)[C@H](NC(=O)[C@H](Cc1ccccc1)NC(=O)[C@H](CCC(=O)O)NC(=O)[C@H](CCCNC(=N)N)NC(=O)[C@H](C)NC(=O)[C@H](C)NC(=O)[C@H](CCC(N)=O)NC(=O)[C@H](CCC(=O)O)NC(=O)[C@H](CCC(=O)O)NC(=O)[C@H](CC(C)C)NC(=O)[C@H](Cc1ccc(O)cc1)NC(=O)[C@H](CO)NC(=O)[C@H](CO)NC(=O)[C@@H](NC(=O)[C@H](CC(=O)O)NC(=O)[C@H](CO)NC(=O)[C@@H](NC(=O)[C@H](Cc1ccccc1)NC(=O)[C@@H](NC(=O)CNC(=O)[C@H](CCC(=O)O)NC(=O)[C@H](CO)NC(=O)[C@@H](N)Cc1c[nH]cn1)[C@@H](C)O)[C@@H](C)O)C(C)C)C(=O)N[C@@H](CCCCNC(=O)COCCOCCNC(=O)COCCOCCNC(=O)CC[C@H](NC(=O)CCCCCCCCCCCCCCCCC(=O)O)C(=O)O)C(=O)N[C@@H](Cc1c[nH]c2ccccc12)C(=O)N[C@@H](CC(C)C)C(=O)N[C@H](C(=O)N[C@@H](CCCNC(=N)N)C(=O)NCC(=O)N[C@@H](CCCNC(=N)N)C(=O)NCC(=O)O)C(C)C` [M17, N-ε^30-[2-(2-[2-(2-[2-(2-[4-(17-carboxyheptadecanoylamino)-4(s)-carboxybutyrylamino]ethoxy)ethoxy]acetylamino)ethoxy]ethoxy)acetyl](Ser^8Glu^22Lys^30Arg^26,34-GLP-1(7-37)) peptide] (H-HSEGTFTSDVSSYLEEQAAREFIK([AEEA-AEEA-γGlu-C18 diacid])WLVRGRG-OH; N-terminus and C-terminus assumed) was tested, and the “in vitro activities (comparison in words)” value (from here on “in vitro activities”) (GLP1R) was “comparable” and the “glucose-lowing effect compared with Semaglutide (FIG. 1)” value (db/db mice; day 2) was “lower than that of Semaglutide”.
In the case of `CC[C@H](C)[C@H](NC(=O)[C@H](Cc1ccccc1)NC(=O)[C@H](CCC(=O)O)NC(=O)[C@H](CCCNC(=N)N)NC(=O)[C@H](C)NC(=O)[C@H](C)NC(=O)[C@H](CCCCNC(=O)COCCOCCNC(=O)COCCOCCNC(=O)CC[C@H](NC(=O)CCCCCCCCCCCCCCCCC(=O)O)C(=O)O)NC(=O)[C@H](CCC(=O)O)NC(=O)[C@H](CCC(=O)O)NC(=O)[C@H](CC(C)C)NC(=O)[C@H](Cc1ccc(O)cc1)NC(=O)[C@H](CO)NC(=O)[C@H](CO)NC(=O)[C@@H](NC(=O)[C@H](CC(=O)O)NC(=O)[C@H](CO)NC(=O)[C@@H](NC(=O)[C@H](Cc1ccccc1)NC(=O)[C@@H](NC(=O)CNC(=O)[C@H](CCC(=O)O)NC(=O)[C@@H](NC(=O)[C@@H](N)Cc1c[nH]cn1)[C@@H](C)CC)[C@@H](C)O)[C@@H](C)O)C(C)C)C(=O)N[C@@H](C)C(=O)N[C@@H](Cc1c[nH]c2ccccc12)C(=O)N[C@@H](CC(C)C)C(=O)N[C@H](C(=O)N[C@@H](CCCNC(=N)N)C(=O)NCC(=O)N[C@@H](CCCNC(=N)N)C(=O)NCC(=O)O)C(C)C` [M9, N-ε^23-[2-(2-[2-(2-[2-(2-[4-(17-carboxyheptadecanoylamino)-4(s)-carboxybutyrylamino]ethoxy)ethoxy]acetylamino)ethoxy]ethoxy)acetyl](Ile^8Glu^22Lys^23Arg^26,34-GLP-1 (7-37)) peptide] (H-HIEGTFTSDVSSYLEEK([AEEA-AEEA-γGlu-C18 diacid])AAREFIAWLVRGRG-OH; N-terminus and C-terminus assumed), the “in vitro activities” value (GLP1R) is reported as “comparable” and the “glucose-lowing effect compared with Semaglutide (FIG. 1)” value (db/db mice; day 4 and day 5) is reported as “better than that of Semaglutide”.
For `CC[C@H](C)[C@H](NC(=O)[C@H](Cc1ccccc1)NC(=O)[C@H](CCC(=O)O)NC(=O)[C@H](CCCNC(=N)N)NC(=O)[C@H](C)NC(=O)[C@H](C)NC(=O)[C@H](CCC(N)=O)NC(=O)[C@H](CCC(=O)O)NC(=O)[C@H](CCC(=O)O)NC(=O)[C@H](CC(C)C)NC(=O)[C@H](Cc1ccc(O)cc1)NC(=O)[C@H](CO)NC(=O)[C@H](CO)NC(=O)[C@@H](NC(=O)[C@H](CC(=O)O)NC(=O)[C@H](CO)NC(=O)[C@@H](NC(=O)[C@H](Cc1ccccc1)NC(=O)[C@@H](NC(=O)CNC(=O)[C@H](CCC(=O)O)NC(=O)[C@@H](NC(=O)[C@@H](N)Cc1c[nH]cn1)[C@@H](C)O)[C@@H](C)O)[C@@H](C)O)C(C)C)C(=O)N[C@@H](CCCCNC(=O)COCCOCCNC(=O)COCCOCCNC(=O)CC[C@H](NC(=O)CCCCCCCCCCCCCCCCC(=O)O)C(=O)O)C(=O)N[C@@H](Cc1c[nH]c2ccccc12)C(=O)N[C@@H](CC(C)C)C(=O)N[C@H](C(=O)N[C@@H](CCCNC(=N)N)C(=O)NCC(=O)N[C@@H](CCCNC(=N)N)C(=O)NCC(=O)O)C(C)C` [M13] (H-HTEGTFTSDVSSYLEEQAAREFIK([AEEA-AEEA-γGlu-C18 diacid])WLVRGRG-OH; N-terminus and C-terminus assumed), the “glucose-lowing effect compared with Semaglutide (FIG. 1)” value (db/db mice; day 4 and day 5) was “better than that of Semaglutide”.
In the case of `CC[C@H](C)[C@H](NC(=O)[C@H](Cc1ccccc1)NC(=O)[C@H](CCC(=O)O)NC(=O)[C@H](CCCNC(=N)N)NC(=O)[C@H](C)NC(=O)[C@H](C)NC(=O)[C@H](CCC(N)=O)NC(=O)[C@H](CCC(=O)O)NC(=O)[C@H](CCC(=O)O)NC(=O)[C@H](CC(C)C)NC(=O)[C@H](Cc1ccc(O)cc1)NC(=O)[C@H](CO)NC(=O)[C@H](CO)NC(=O)[C@@H](NC(=O)[C@H](CC(=O)O)NC(=O)[C@H](CO)NC(=O)[C@@H](NC(=O)[C@H](Cc1ccccc1)NC(=O)[C@@H](NC(=O)CNC(=O)[C@H](CCC(=O)O)NC(=O)[C@@H](NC(=O)[C@@H](N)Cc1c[nH]cn1)[C@@H](C)CC)[C@@H](C)O)[C@@H](C)O)C(C)C)C(=O)N[C@@H](CCCCNC(=O)COCCOCCNC(=O)COCCOCCNC(=O)CC[C@H](NC(=O)CCCCCCCCCCCCCCCCC(=O)O)C(=O)O)C(=O)N[C@@H](Cc1c[nH]c2ccccc12)C(=O)N[C@@H](CC(C)C)C(=O)N[C@H](C(=O)N[C@@H](CCCNC(=N)N)C(=O)NCC(=O)N[C@@H](CCCNC(=N)N)C(=O)NCC(=O)O)C(C)C` [M14, N-ε^30-[2-(2-[2-(2-[2-(2-[4-(17-carboxyheptadecanoylamino)-4(s)-carboxybutyrylamino]ethoxy)ethoxy]acetylamino)ethoxy]ethoxy)acetyl](Ile^8Glu^22Lys^30Arg^26,34-GLP-1(7-37)) peptide] (H-HIEGTFTSDVSSYLEEQAAREFIK([AEEA-AEEA-γGlu-C18 diacid])WLVRGRG-OH; N-terminus and C-terminus assumed), the “in vitro activities” value (GLP1R) is reported as “comparable” and the “glucose-lowing effect compared with Semaglutide (FIG. 1)” value (db/db mice; day 4 and day 5) is reported as “better than that of Semaglutide”.
`CC[C@H](C)[C@H](NC(=O)[C@H](Cc1ccccc1)NC(=O)[C@H](CCC(=O)O)NC(=O)[C@H](CCCNC(=N)N)NC(=O)[C@H](C)NC(=O)[C@H](C)NC(=O)[C@H](CCCCNC(=O)COCCOCCNC(=O)COCCOCCNC(=O)CC[C@H](NC(=O)CCCCCCCCCCCCCCCCC(=O)O)C(=O)O)NC(=O)[C@H](CCC(=O)O)NC(=O)[C@H](CCC(=O)O)NC(=O)[C@H](CC(C)C)NC(=O)[C@H](Cc1ccc(O)cc1)NC(=O)[C@H](CO)NC(=O)[C@H](CO)NC(=O)[C@@H](NC(=O)[C@H](CC(=O)O)NC(=O)[C@H](CO)NC(=O)[C@@H](NC(=O)[C@H](Cc1ccccc1)NC(=O)[C@@H](NC(=O)CNC(=O)[C@H](CCC(=O)O)NC(=O)CNC(=O)[C@@H](N)Cc1c[nH]cn1)[C@@H](C)O)[C@@H](C)O)C(C)C)C(=O)N[C@@H](C)C(=O)N[C@@H](Cc1c[nH]c2ccccc12)C(=O)N[C@@H](CC(C)C)C(=O)N[C@H](C(=O)N[C@@H](CCCNC(=N)N)C(=O)NCC(=O)N[C@@H](CCCNC(=N)N)C(=O)NCC(=O)O)C(C)C` [M11, N-ε^23-[2-(2-[2-(2-[2-(2-[4-(17-carboxyheptadecanoylamino)-4(s)-carboxybutyrylamino]ethoxy)ethoxy]acetylamino)ethoxy]ethoxy)acetyl](Gly^8Glu^22Lys^23Arg^26,34-GLP-1(7-37)) peptide] (H-HGEGTFTSDVSSYLEEK([AEEA-AEEA-γGlu-C18 diacid])AAREFIAWLVRGRG-OH; N-terminus and C-terminus assumed) was tested, and the “in vitro activities” value (GLP1R) was “comparable” and the “glucose-lowing effect compared with Semaglutide (FIG. 1)” value (db/db mice; day 2) was “lower than that of Semaglutide”.
